Converted amounts (≈) assume the structure as drawn. Counter-ions that a name gives are not always drawn. Like-named read-outs stand apart in the source and are kept apart here.
Key:
Format in all cases: cell-based
S. uberis ATCC 19436 = assay: MIC by broth microdilution, S. uberis; settings: Streptococcus uberis
How it was run: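 The MIC against S. uberis ATCC 19436 was the lowest compound concentration showing no growth by OD600 after 24 h at 37° C. with 200 rpm shaking. Cultures grown overnight were adjusted to OD600 ~0.025 so wells held approximately 5×10^5 cfu/mL in THB. Two-fold dilution series were made at a final volume of 200 μl. Media and untreated controls were run in triplicate on each plate.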

S. aureus ATCC 6538 = assay: MIC by broth microdilution, S. aureus; settings: Staphylococcus aureus
How it was run: (§1)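 Two-fold serial dilutions were tested in broth at ~5×10^5 cfu/mL: S. aureus in TSB or CAMHB, E. coli in LB or CAMHB, with 50 μM zinc sulphate added as required. After 24 h at 37° C, 200 rpm, MIC was the lowest concentration showing no growth by OD600.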

E. coli ATCC 10596 = assay: MIC by broth microdilution, E. coli; settings: Escherichia coli
How it was run: as §1

[1] = ATCC19436, No Zinc, read-out: S. uberis ATCC 19436 MIC
[2] = ATCC19436, Zinc (50 μM), read-out: S. uberis ATCC 19436 MIC
[3] = ATCC6538, No Zinc, read-out: S. aureus ATCC 6538 MIC
[4] = ATCC6538, Zinc (50 μM), read-out: S. aureus ATCC 6538 MIC
[5] = ATCC 10536 / ATCC 10596, No Zinc, read-out: E. coli ATCC 10536 MIC
[6] = ATCC 10536 / ATCC 10596, Zinc (50 μM), read-out: E. coli ATCC 10536 MIC

Row | Compound | MIC (S. uberis ATCC 19436; [1]) [µg/mL] | MIC (S. uberis ATCC 19436; [2]) [µg/mL] | MIC (S. aureus ATCC 6538; [3]) [µg/mL] | MIC (S. aureus ATCC 6538; [4]) [µg/mL] | MIC (E. coli ATCC 10596; [5]) [µg/mL] | MIC (E. coli ATCC 10596; [6]) [µg/mL] | MIC (S. uberis ATCC 19436; ATCC19436, read-out: S. uberis ATCC 19436 MIC, No Zinc) [µg/mL] | MIC (S. uberis ATCC 19436; ATCC19436, read-out: S. uberis ATCC 19436 MIC, Zinc (50 μM)) [µg/mL] | MIC (S. aureus ATCC 6538; ATCC6538, read-out: S. aureus ATCC 6538 MIC, No Zinc) [µg/mL] | MIC (S. aureus ATCC 6538; ATCC6538, read-out: S. aureus ATCC 6538 MIC, Zinc (50 μM)) [µg/mL] | MIC (E. coli ATCC 10596; ATCC 10536 / ATCC 10596, read-out: E. coli ATCC 10536 MIC, No Zinc) [µg/mL] | MIC (E. coli ATCC 10596; ATCC 10536 / ATCC 10596, read-out: E. coli ATCC 10536 MIC, Zinc (50 μM)) [µg/mL]
1 | CN(C)Cc1ccc2cccc(NS(=O)(=O)c3cccc(O)c3)c2n1 [ZDR163, N-(2-((Dimethylamino)methyl)quinolin-8-yl)-3-hydroxybenzenesulfonamide] | > 256 | 8 (≈ 22.4 µM) | > 256 | > 256 | > 256 | > 256 |  |  |  |  |  | 
2 | O=S(=O)(Nc1cccc2ccc(CO)nc12)c1ccc(C(F)(F)F)cc1 [ZDR176, N-(2-(Hydroxymethyl)quinolin-8-yl)-4-(trifluoromethyl)benzenesulfonamide] | > 256 | 0.5 (≈ 1.31 µM) | 4 (≈ 10.5 µM) | 4 (≈ 10.5 µM) | > 256 | > 256 |  |  |  |  |  | 
3 | CS(=O)(=O)NCCNCc1ccc2cccc(NS(=O)(=O)c3ccc(C(F)(F)F)cc3)c2n1 [ZDR180, N-(2-(((2-(Methylsulfonamido)ethyl)amino)methyl)quinolin-8-yl)-4-(trifluoromethyl)benzenesulfonamide] | > 256 | 0.5 (≈ 0.995 µM) | 64 (≈ 127 µM) | 256 (≈ 509 µM) | 128 (≈ 255 µM) | > 256 |  |  |  |  |  | 
4 | O=S(=O)(NCCNCc1ccc2cccc(NS(=O)(=O)c3ccc(C(F)(F)F)cc3)c2n1)c1ccccc1 [ZDR181, N-(2-(((2-(Phenylsulfonamido)ethyl)amino)methyl)quinolin-8-yl)-4-(trifluoromethyl)benzenesulfonamide] | > 256 | 0.5 (≈ 0.886 µM) | 64 (≈ 113 µM) | > 256 | 64 (≈ 113 µM) | > 256 |  |  |  |  |  | 
5 | N/C(=N\[N+](=O)[O-])NCc1ccc2cccc(NS(=O)(=O)c3ccc(C(F)(F)F)cc3)c2n1 [ZDR188, (E)-N-(2-((2-Nitroguanidino)methyl)quinolin-8-yl)-4-(trifluoromethyl)benzenesulfonamide] | > 256 | 0.5 (≈ 1.07 µM) | > 256 | > 256 | > 256 | > 256 |  |  |  |  |  | 
6 | CN(C)Cc1ccc2cccc(NS(=O)(=O)c3ccccc3Cl)c2n1 [ZDR190, 2-Chloro-N-(2-((dimethylamino)methyl)quinolin-8-yl)benzenesulfonamide] | 256 (≈ 681 µM) | 1 (≈ 2.66 µM) | > 256 | > 256 | > 256 | > 256 |  |  |  |  |  | 
7 | CN(C)Cc1ccc2cccc(NS(=O)(=O)N3CCCCC3)c2n1 [ZDR193, N-(2-((Dimethylamino)methyl)quinolin-8-yl)piperidine-1-sulfonamide] | 128 (≈ 367 µM) | 0.25 (≈ 0.717 µM) | > 256 | > 256 | > 256 | > 256 |  |  |  |  |  | 
8 | CN(C)Cc1ccc2cccc(NS(=O)(=O)c3cccc4nsnc34)c2n1 [ZDR196, N-(2-((Dimethylamino)methyl)quinolin-8-yl)benzo[c][1,2,5]thiadiazole-4-sulfonamide] | 256 (≈ 641 µM) | 0.0625 (≈ 0.156 µM) | > 256 | 32 (≈ 80.1 µM) | > 256 | > 256 |  |  |  |  |  | 
9 | Cc1nc(C)c(S(=O)(=O)Nc2cccc3ccc(CN(C)C)nc23)s1 [ZDR203, N-(2-((Dimethylamino)methyl)quinolin-8-yl)-2,4-dimethylthiazole-5-sulfonamide] | 256 (≈ 680 µM) | 0.5 (≈ 1.33 µM) | > 256 | 64 (≈ 170 µM) | > 256 | > 256 |  |  |  |  |  | 
10 | CN(C)Cc1ccc2cccc(NS(=O)(=O)N3CCCC3)c2n1 [ZDR204, N-(2-((Dimethylamino)methyl)quinolin-8-yl)pyrrolidine-1-sulfonamide] | 256 (≈ 765 µM) | 0.5 (≈ 1.5 µM) | > 256 | 256 (≈ 765 µM) | > 256 | > 256 |  |  |  |  |  | 
11 | O=S(=O)(NCc1ccc2cccc(NS(=O)(=O)c3ccc(C(F)(F)F)cc3)c2n1)c1ccccc1 [ZDR210, N-(2-(Phenylsulfonamidomethyl)quinolin-8-yl)-4-(trifluoromethyl)benzenesulfonamide] | > 256 | 0.25 (≈ 0.479 µM) | > 256 | > 256 | > 256 | > 256 |  |  |  |  |  | 
12 | CN(C)CCCC(=O)NCc1ccc2cccc(NS(=O)(=O)c3ccc(C(F)(F)F)cc3)c2n1 [ZDR211, 4-(Dimethylamino)-N-((8-((4-(trifluoromethyl)phenyl)sulfonamido)quinolin-2-yl)methyl)butanamide trifluoroacetate] |  |  |  |  |  |  | 64 | 16 | 128 | 64 | 128 | 128

Now from value to compound, other results behind:

Row | MIC (S. uberis ATCC 19436; [1]) [µg/mL] | MIC (S. uberis ATCC 19436; [2]) [µg/mL] | MIC (S. aureus ATCC 6538; [3]) [µg/mL] | MIC (S. aureus ATCC 6538; [4]) [µg/mL] | MIC (E. coli ATCC 10596; [5]) [µg/mL] | MIC (E. coli ATCC 10596; [6]) [µg/mL] | Compound | MIC (S. uberis ATCC 19436; ATCC19436, read-out: S. uberis ATCC 19436 MIC, No Zinc) [µg/mL] | MIC (S. uberis ATCC 19436; ATCC19436, read-out: S. uberis ATCC 19436 MIC, Zinc (50 μM)) [µg/mL] | MIC (S. aureus ATCC 6538; ATCC6538, read-out: S. aureus ATCC 6538 MIC, No Zinc) [µg/mL] | MIC (S. aureus ATCC 6538; ATCC6538, read-out: S. aureus ATCC 6538 MIC, Zinc (50 μM)) [µg/mL] | MIC (E. coli ATCC 10596; ATCC 10536 / ATCC 10596, read-out: E. coli ATCC 10536 MIC, No Zinc) [µg/mL] | MIC (E. coli ATCC 10596; ATCC 10536 / ATCC 10596, read-out: E. coli ATCC 10536 MIC, Zinc (50 μM)) [µg/mL]
13 | > 256 | > 256 | > 256 | > 256 | > 256 | > 256 | CN(C)Cc1ccc2cccc(NS(=O)(=O)c3ccc(O)cc3)c2n1 [ZDR164, N-(2-((Dimethylamino)methyl)quinolin-8-yl)-4-hydroxybenzenesulfonamide] |  |  |  |  |  | 
14 | 32 (≈ 83.9 µM) | 0.5 (≈ 1.31 µM) | 8 (≈ 21 µM) | 4 (≈ 10.5 µM) | 64 (≈ 168 µM) | 128 (≈ 336 µM) | NCc1ccc2cccc(NS(=O)(=O)c3ccc(C(F)(F)F)cc3)c2n1 [ZDR184, N-(2-(Aminomethyl)quinolin-8-yl)-4-(trifluoromethyl)benzenesulfonamide] |  |  |  |  |  | 
15 | > 256 | 0.125 (≈ 0.295 µM) | 256 (≈ 605 µM) | 32 (≈ 75.6 µM) | > 256 | > 256 | CC(=O)NCc1ccc2cccc(NS(=O)(=O)c3ccc(C(F)(F)F)cc3)c2n1 [ZDR185, N-((8-((4-(Trifluoromethyl)phenyl)sulfonamido)quinolin-2-yl)methyl)acetamide] |  |  |  |  |  | 
16 | > 256 | 0.25 (≈ 0.401 µM) | > 256 | > 256 | > 256 | > 256 | CC(C)(C)OC(=O)N=C(NCc1ccc2cccc(NS(=O)(=O)c3ccc(C(F)(F)F)cc3)c2n1)NC(=O)OC(C)(C)C [ZDR186, N-(2-(N,N′-Bis-Boc-Guanidinomethyl)quinolin-8-yl)-4-(trifluoromethyl)benzenesulfonamide] |  |  |  |  |  | 
17 | 256 (≈ 602 µM) | 0.125 (≈ 0.294 µM) | > 256 | > 256 | > 256 | > 256 | CN(C)Cc1ccc2cccc(NS(=O)(=O)c3ccccc3OC(F)(F)F)c2n1 [ZDR191, N-(2-((Dimethylamino)methyl)quinolin-8-yl)-2-(trifluoromethoxy)benzenesulfonamide] |  |  |  |  |  | 
18 | > 256 | 1 (≈ 2.85 µM) | > 256 | > 256 | > 256 | > 256 | CN(C)Cc1ccc2cccc(NS(=O)(=O)N3CCOCC3)c2n1 [ZDR192, N-(2-((Dimethylamino)methyl)quinolin-8-yl)morpholine-4-sulfonamide] |  |  |  |  |  | 
19 | > 256 | 4 (≈ 11.6 µM) | > 256 | > 256 | > 256 | > 256 | CN(C)Cc1ccc2cccc(NS(=O)(=O)c3cnn(C)c3)c2n1 [ZDR194, N-(2-((Dimethylamino)methyl)quinolin-8-yl)-1-methyl-1H-pyrazole-4-sulfonamide] |  |  |  |  |  | 
20 | > 256 | 32 (≈ 92.6 µM) | > 256 | > 256 | > 256 | > 256 | CN(C)Cc1ccc2cccc(NS(=O)(=O)c3cn(C)cn3)c2n1 [ZDR195, N-(2-((Dimethylamino)methyl)quinolin-8-yl)-1-methyl-1H-imidazole-4-sulfonamide] |  |  |  |  |  | 
21 | 128 (≈ 356 µM) | 0.0625 (≈ 0.174 µM) | > 256 | 32 (≈ 89 µM) | > 256 | > 256 | CN(C)Cc1ccc2cccc(NS(=O)(=O)c3ccccc3F)c2n1 [ZDR201, N-(2-((Dimethylamino)methyl)quinolin-8-yl)-2-fluorobenzenesulfonamide] |  |  |  |  |  | 
22 | 256 (≈ 609 µM) | 0.125 (≈ 0.297 µM) | 256 (≈ 609 µM) | > 256 | > 256 | > 256 | CN(C)Cc1ccc2cccc(NS(=O)(=O)c3ccccc3Br)c2n1 [ZDR202, 2-Bromo-N-(2-((dimethylamino)methyl)quinolin-8-yl)benzenesulfonamide] |  |  |  |  |  | 
23 | 256 (≈ 549 µM) | 0.125 (≈ 0.268 µM) | 128 (≈ 274 µM) | 64 (≈ 137 µM) | > 256 | > 256 | CN(C)CC(=O)NCc1ccc2cccc(NS(=O)(=O)c3ccc(C(F)(F)F)cc3)c2n1 [ZDR205, 2-(Dimethylamino)-N-((8-((4-(trifluoromethyl)phenyl)sulfonamido)quinolin-2-yl)methyl)acetamide] |  |  |  |  |  | 
24 | > 256 | 1 (≈ 2.18 µM) | > 256 | > 256 | > 256 | > 256 | CS(=O)(=O)NCc1ccc2cccc(NS(=O)(=O)c3ccc(C(F)(F)F)cc3)c2n1 [ZDR209, N-(2-(Methylsulfonamidomethyl)quinolin-8-yl)-4-(trifluoromethyl)benzenesulfonamide] |  |  |  |  |  | 

From patent US11691949B2, “Quinoline sulfonamide compounds and their use as antibacterial agents” (OTAGO INNOVATION LIMITED, priority 2017, dated 2023)
